In ChEMBL document CHEMBL1127328, “Copper complexation by 3-hydroxypyridin-4-one iron chelators: structural and iron competition studies” (J Med Chem, 1994):

Experiments:
Format in all cases: ADME
[1] = Acid dissociation constant was determined
[2] = log K1 value of the compound
[3] = log K2 value of the compound
[4] = log K3 value of the compound

SMILES	pKa ([1]; read-out: pKa1)	pKa ([1]; read-out: pKa2)	Log K1 [2]	Log K2 [3]	Log K3 [4]
O=C(O)CCn1ccc(=O)c(O)c1	2.92	8.91	9.48	7.48	–
Cn1ccc(=O)c(O)c1	3.35	8.8	9.35	7.58	–
Oc1ccncc1O	3.36	–	9.49	7.64	–
CCn1ccc(=O)c(O)c1C	3.79	9.79	–	–	–
CCc1c(O)c(=O)ccn1CC	3.93	10.1	13.18	7.03	2.65
CCc1c(O)c(=O)ccn1C	3.74	9.7	–	–	–
Cc1c(O)c(=O)ccn1C [DEFERIPRONE]	3.84	9.86	11.48	10.22	5.64
